According to ChEMBL document CHEMBL5244250, “Natural sesquiterpenoid oligomers: A chemical perspective” (Eur J Med Chem, 2020):
Values after ≈ are worked out from the molar mass of the structure shown.

Legend:
RAW264.7 [1] = test: Anti-inflammatory activity in LPS induced mouse RAW264.7 cells assessed as inhibition of NO production by MTT method; assay type: functional, cell-based
HL-60 [2] = test: Cytotoxicity against human HL-60 cells assessed as inhibition of cell growth; assay type: functional, cell-based
L1210 = test: Cytotoxicity against mouse L1210 cells assessed as reduction in cell viability; assay type: functional, cell-based
KB = test: Cytotoxicity against human KB cells assessed as reduction in cell viability; assay type: functional, cell-based
HepG2 = test: Cytotoxicity against human HepG2 cells incubated for 48 hrs by MTT based colorimetry assay; assay type: functional, cell-based; settings: HepG2, 48 h
CCRF S-180 = test: Cytotoxicity against mouse CCRF S-180 cells incubated for 48 hrs by MTT based colorimetry assay; assay type: functional, cell-based; settings: CCRF S-180, 48 h
MGC-803 = test: Cytotoxicity against human MGC-803 cells incubated for 48 hrs by MTT based colorimetry assay; assay type: functional, cell-based; settings: MGC-803, 48 h
[3] = Cytotoxicity against human 6T-CEM cells; assay type: functional, cell-based
RAW264.7 [4] = test: Anti-inflammatory activity in LPS induced mouse RAW264.7 cells assessed as inhibition of NO production pretreated for 1 hr followed by LPS stimulation and measured after 18 hrs by MTT assay; assay type: functional; settings: time 19 hrs, read-out: ED50 (the source's name)
HeLa = test: Cytotoxicity against human HeLa cells incubated for 48 hrs by WST-8 assay; assay type: functional, cell-based
HL-60 [5] = test: Cytotoxicity against human HL-60 cells incubated for 48 hrs by WST-8 assay; assay type: functional, cell-based; settings: HL-60, 48 h
B16-F10 = test: Cytotoxicity against mouse B16-F10 cells incubated for 48 hrs by WST-8 assay; assay type: functional, cell-based; settings: B16-F10, 48 h
HL-60 [6] = test: Cytotoxicity against human HL-60 cells; assay type: functional, cell-based
CCRF-CEM = test: Cytotoxicity against human CCRF-CEM cells; assay type: functional, cell-based
PC-12 = test: Neuroprotective activity against glutamate-induced neurotoxicity in rat PC-12 cells; assay type: functional, cell-based
A549 = test: Cytotoxicity against human A549 cells incubated for 72 hrs by CCK8 assay; assay type: functional, cell-based; settings: A549, 72 h
HL-60 [7] = test: Cytotoxicity against human HL-60 cells incubated for 72 hrs by CCK8 assay; assay type: functional, cell-based; settings: HL-60, 72 h
HT-29 = test: Cytotoxicity against human HT-29 cells incubated for 72 hrs by CCK8 assay; assay type: functional, cell-based; settings: HT-29, 72 h
Bel-7402 = test: Cytotoxicity against human Bel-7402 cells incubated for 72 hrs by CCK8 assay; assay type: functional, cell-based; settings: Bel-7402, 72 h
Plasmodium falciparum = test: Antiplasmodial activity against Plasmodium falciparum; assay type: functional, organism-based
RAW264.7 [8] = test: Anti-inflammatory activity in LPS induced mouse RAW264.7 cells assessed as inhibition of NO production measured after 24 hrs by CCK-8 method; assay type: functional, cell-based; settings: RAW264.7, 24 h

SMILES: C=C1CC[C@H]2C(=C)CC[C@@H]3[C@H](OC(=O)[C@]3(CC(C)O)C[C@@H]3C(=O)O[C@H]4[C@H]3CCC(=C)[C@@H]3CCC(=C)[C@@]34C)[C@@H]12 (some centres not stated)
- IC50 (RAW264.7 [1]): 2460 nM

SMILES: C[C@H](O)CC[C@H]1[C@@H]2C[C@H]3[C@@H](C[C@]12C)OC(=O)C31CC2(CO1)C(=O)O[C@@H]1C[C@]3(C)[C@@H](CC[C@@H](C)O)[C@@H]3C[C@@H]12 (some centres not stated)
- IC50 (HL-60 [2]): 8700 nM

SMILES: C=C1CCC[C@]2(C)CC[C@@H](C(C)C)[C@H](NC(=O)N(CC(=O)O)[C@@H]3[C@H]4C(=C)CCC[C@]4(C)CC[C@H]3C(C)C)[C@@H]12
- IC50 (L1210): 2.6 µg/mL (≈ 4.94 µM)
- IC50 (KB): 2.6 µg/mL (≈ 4.94 µM)

SMILES: CC(=O)C1=C(Oc2oc3cc4c(c(C)c3c2C)[C@@H](C)CCC4)C[C@H]2CCC[C@H](C)[C@@]2(C)C1
- IC50 (HepG2): 11900 nM
- IC50 (CCRF S-180): 11900 nM
- IC50 (MGC-803): 11900 nM

SMILES: C=C1C(=O)O[C@H]2C[C@H](C)C3=C(C[C@H]12)[C@@]1(C)OC(=O)[C@@H](c2ccc(C)c([C@H](C)CCCOC(C)=O)c2)C[C@H]1[C@H]3OC(C)=O
- IC50 [3]: 4400 nM

SMILES: C=C(C)[C@@H]1c2oc3c(c2C(=O)C2=CCC[C@@H](C)[C@@]21C)C(=O)C[C@]1(C)C3=CCC[C@H]1C
- EC50 (RAW264.7 [4]): 23600 nM

SMILES: C=C1CCC[C@]2(C)CC[C@@H](C(C)C)[C@H](NC(=O)NC(C)(C)[C@@H]3C=C4[C@@H](C)CCC[C@]4(C)CC3)[C@@H]12
- IC50 (L1210): 2.6 µg/mL (≈ 5.55 µM)
- IC50 (KB): 2.6 µg/mL (≈ 5.55 µM)

SMILES: C=C1C(=O)O[C@@H]2/C=C(\C)CC/C=C(/C(=O)OC)[C@H](OCC)[C@@H](OC(=O)[C@](C)(O)[C@H](C)OC(=O)/C3=C/CC/C(C)=C/[C@H]4OC(=O)C(=C)[C@@H]4[C@H](OC(=O)/C(C)=C\C)C3)[C@@H]12
- IC50 (HeLa): 200 nM
- IC50 (HL-60 [5]): 200 nM
- IC50 (B16-F10): 200 nM

SMILES: C=C1C(=O)O[C@H]2C[C@H](C)C3=C(C[C@H]12)[C@]1(C)C[C@H]3C[C@@]12C(=O)O[C@@H]1C[C@H](C)C(CC[C@H](C)O)=CC[C@@H]12
- IC50 (HL-60 [6]): 4900 nM

SMILES: C=C1C(=O)O[C@H]2[C@H]1[C@H](OC(=O)[C@](C)(O)[C@H](C)OC(=O)/C1=C/CC/C(C)=C/[C@H]3OC(=O)C(=C)[C@@H]3[C@H](OC(=O)/C(C)=C\C)C1)[C@@H](OCC)/C(C(=O)OC)=C\CC[C@]1(C)O[C@@H]21
- IC50 (HeLa): 200 nM
- IC50 (HL-60 [5]): 200 nM
- IC50 (B16-F10): 200 nM

SMILES: C=C1C(=O)O[C@H]2C[C@H](C)C3=C(C[C@H]12)[C@@]1(C)C[C@@H]3C[C@@]12C(=O)O[C@@H]1C[C@@]3(C)[C@@H](O)C[C@@H](O)C(=C)[C@@H]3C[C@@H]12
- IC50 (CCRF-CEM): 140 nM

SMILES: C=C1C(=O)O[C@H]2C[C@H](C)[C@@]34C[C@@H](C[C@@]35C(=O)O[C@@H]3C[C@@]6(C)[C@@H](O)C[C@@H](O)C(=C)[C@@H]6C[C@@H]35)C(C)=C4C[C@H]12
- IC50 (CCRF-CEM): 140 nM

SMILES: C=C1C(=O)O[C@H]2C[C@H](C)[C@@]34C[C@@H](C[C@@]35C(=O)O[C@H]3CC(=C)[C@H]6CC[C@@](C)(O)[C@@H]6C[C@@H]35)C(C)=C4C[C@H]12
- IC50 (CCRF-CEM): 2030 nM

SMILES: C=C1CC[C@H]2C(=C)CC[C@@H]3[C@H](OC(=O)[C@]3(CC(C)=O)C[C@@H]3C(=O)O[C@@H]4/C=C(/C)CC/C=C(/C)CC[C@@H]34)[C@@H]12
- IC50 (RAW264.7 [1]): 1880 nM

SMILES: C=C1CC[C@H]2C(=C)CC[C@@H]3[C@H](OC(=O)[C@]3(CC(C)=O)C[C@@H]3CC[C@H]4C(=C)CC[C@H]5C(=C)C(=O)O[C@@H]5[C@@H]34)[C@@H]12
- EC50 (PC-12): 2110 nM

SMILES: C=C1CC[C@H]2C(=C)C(=O)O[C@@H]2[C@@H]2[C@H]1[C@@H](C[C@@H]1C(=O)C3C4[C@H]1[C@H]1OC(=O)C(=C)[C@@H]1CC[C@]4(O)CC[C@]31C(=O)C[C@H]3C(=C)CC[C@H]4C(=C)C(=O)O[C@@H]4[C@H]31)C(=O)[C@@]2(O)CC[C@@H]1C(=O)C[C@H]2C(=C)CC[C@H]3C(=C)C(=O)O[C@@H]3[C@@H]12 (some centres not stated)
- IC50 (A549): 2000 nM
- IC50 (HL-60 [7]): 2000 nM
- IC50 (HT-29): 2000 nM
- IC50 (Bel-7402): 2000 nM

SMILES: C/C=C(\C)C(=O)O[C@@H]1CC([C@H](O)[C@]2(C)C=C3OC(=O)C4=C3[C@H]2[C@H]2OC(=O)[C@H](C)[C@@H]2[C@H](OC(=O)/C(C)=C/C)C4)=C2C(=O)C=C(C)[C@@H]2[C@H]2OC(=O)[C@H](C)[C@@H]21
- IC50 (Plasmodium falciparum): 2000 nM

SMILES: C=C1C(=O)O[C@H]2C[C@H](C)[C@@]34C[C@@H](C[C@@]35C(=O)O[C@H]3C=C(C)[C@H]6CC[C@@](C)(O)[C@@H]6C[C@@H]35)C(C)=C4C[C@H]12
- IC50 (CCRF-CEM): 2030 nM

SMILES: C=C1CC[C@H]2C(=C)CC[C@@H]3[C@H](OC(=O)[C@H]3C[C@@]3(CC(C)=O)C(=O)O[C@@H]4C/C(C)=C\CC/C=C(/C)C[C@H]43)[C@@H]12
- IC50 (RAW264.7 [1]): 4890 nM

SMILES: C=C1C(=O)O[C@H]2C[C@H](C)C3=C(C[C@H]12)[C@@]1(C)C[C@H]3C[C@@]12C(=O)O[C@@H]1C[C@@]3(C)[C@@H](O)C[C@@H](O)C(=C)[C@@H]3C[C@@H]12
- IC50 (CCRF-CEM): 140 nM

SMILES: COC(=O)/C(C)=C1\C(=O)[C@H](O)[C@@]2(C)[C@@H]3C[C@@H]3C3=C[C@@]4(C)[C@@]5(C)[C@@H]6C[C@@H]6[C@@]6(O)COC(=O)/C(C)=C/COC(=O)C(O)CC(=O)OCC7=C(C[C@@H]65)[C@@]4(OC7=O)[C@@H]1[C@]32OO (some centres not stated)
- IC50 (HL-60 [6]): 30 nM

SMILES: C=C1C(=O)O[C@H]2C[C@H](C)C3=C(C[C@H]12)[C@]1(C)C[C@H]3C[C@@]12C(=O)O[C@@H]1C[C@H](C)C(CCC(C)=O)=CC[C@@H]12
- IC50 (HL-60 [6]): 7500 nM

SMILES: C=C1CCC[C@]2(C)CC[C@@H](C(C)C)[C@H](NC(=O)[C@H]3C[C@H](O)C[C@@H](C(=O)N[C@H]4[C@H](C(C)C)CC[C@@]5(C)CCCC(=C)[C@]45C)N3CCC(=O)OC)[C@@H]12
- IC50 (KB): 10.6 µg/mL (≈ 15.2 µM)

SMILES: C=C1C(=O)O[C@H]2C[C@H](C)C3=C(C[C@H]12)[C@]1(C)C[C@@H]3C[C@@]12C(=O)O[C@@H]1C[C@@]3(C)[C@@H](O)C[C@@H](O)C(=C)[C@@H]3C[C@@H]12
- IC50 (CCRF-CEM): 140 nM

SMILES: C=C1CC[C@H]2C(=C)C(=O)O[C@@H]2[C@@H]2[C@H]1[C@@H](C[C@@H]1C(=O)C3C4[C@H]1[C@H]1OC(=O)C(=C)[C@@H]1CC[C@@]4(O)CC[C@]31C(=O)C[C@H]3C(=C)CC[C@H]4C(=C)C(=O)O[C@@H]4[C@H]31)C(=O)[C@@]2(O)CC[C@@H]1C(=O)C[C@H]2C(=C)CC[C@H]3C(=C)C(=O)O[C@@H]3[C@@H]12 (some centres not stated)
- IC50 (A549): 2000 nM
- IC50 (HL-60 [7]): 2000 nM
- IC50 (HT-29): 2000 nM
- IC50 (Bel-7402): 2000 nM

SMILES: C=C1C(=O)O[C@H]2C[C@H](C)C3=C(C[C@H]12)[C@@]1(C)C[C@@H]3C[C@@]12C(=O)O[C@H]1C=C(C)[C@H]3CC[C@@](C)(O)[C@@H]3C[C@@H]12
- IC50 (CCRF-CEM): 2030 nM

SMILES: C[C@@H]1CC(=O)c2c3c(nc4c2[C@@]1(C)[C@H]1[C@@H](C4=O)C1(C)C)C[C@]1(C)C(=CCC[C@H]1C)C3=O
- EC50 (RAW264.7 [4]): 5730 nM

SMILES: CC(=O)C1=C(Oc2oc3c(c2C)C[C@@]2(C)[C@H](CCC[C@@H]2C)[C@@H]3O)C[C@H]2CCC[C@H](C)[C@@]2(C)C1
- IC50 (HepG2): 11900 nM
- IC50 (CCRF S-180): 11900 nM
- IC50 (MGC-803): 11900 nM

SMILES: C=C1C(=O)O[C@H]2C[C@@H](C)C3=C(C[C@H]12)[C@@]1(C)C[C@@H]3C[C@@]12C(=O)O[C@@H]1C[C@@]3(C)[C@@H](O)C[C@@H](O)C(=C)[C@@H]3C[C@@H]12
- IC50 (CCRF-CEM): 140 nM

SMILES: C=C1CC[C@H]2C(=C)CC[C@@H]3[C@H](OC(=O)[C@H]3C[C@@]3(CC(C)=O)C(=O)O[C@@H]4[C@H]5C(C)=CCCC5(C)CC[C@H]43)[C@@H]12 (some centres not stated)
- IC50 (RAW264.7 [1]): 7240 nM

SMILES: C=C1C(=O)O[C@H]2[C@@H]1CCC1=C(C)[C@H]3CC1(C[C@@]31C(=O)O[C@H]3C[C@H](C)[C@@]45C[C@@]6(C(=O)O[C@@H]7C[C@H](C)C(CCC(C)=O)=CC[C@@H]76)[C@@H](C(C)=C4C[C@@H]31)C5OC(C)=O)[C@H]2C (some centres not stated)
- IC50 (RAW264.7 [8]): 1900 nM
